# Reference: patent publication US20180298405A1, “METHODS AND COMPOSITIONS TO INCREASE HUMAN SOMATIC CELL NUCLEAR TRANSFER (SCNT) EFFICIENCY BY REMOVING HISTONE H3-LYSINE TRIMETHYLATION, AND DERIVATION OF HUMAN NT-ESC” (CHILDREN'S MEDICAL CENTER CORPORATION, priority 2015, published 2018)
# System: H3K9me3
# Assay: Immunostaining of H3K9me3 in 1-cell mouse SCNT embryos after mRNA injection
# Type: cell-based
# Settings: 1-cell stage, 5 hours after mRNA injection
# Procedure: Mouse somatic cell nuclear transfer was carried out as described previously (Matoba et al., 2014). Briefly, both recipient MII oocytes and donor cumulus cells were collected from adult BDF1 female mice through superovulation by injecting 7.5 IU of pregnant mare serum gonadotropin (PMSG; Millipore #367222) and 7.5 IU of human chorionic gonadotropin (hCG; Millipore #230734). Fifteen to seventeen hours after the hCG injection, cumulus-oocyte complexes (COCs) were collected from the oviducts and treated briefly with Hepes-buffered potassium simplex-optimized medium (KSOM) containing 300 U/ml bovine testicular hyaluronidase (Calbiochem #385931) to obtain dissociated MII oocytes and cumulus cells. Isolated MII oocytes were enucleated in Hepes-buffered KSOM medium containing 7.5 jig/ml of cytochalasin B (Calbiochem #250233) by using Piezo-driven micromanipulator (Primetech # PMM-150FU). The nuclei of donor cumulus cells were injected into the enucleated oocytes. After 1 h incubation in KSOM, reconstructed SCNT oocytes were activated by incubating in Ca-free KSOM containing 2.5 mM SrCl2 and 5 jig/ml cytochalasin B for 1 h, and further cultured in KSOM with cytochalasin B for 4 h. […] Preimplantation developmental rates were analyzed by Student's T-test. […]
substance,measurement,value
"KDM4A mRNA: in vitro transcribed mRNA of full length human KDM4A/JHDM3A cDNA, an H3K9me3 demethylase (SEQ ID NO: 1)",H3K9me3 levels in the nucleus of mouse SCNT embryos,greatly reduced H3K9me3 levels
